Entries after “also recorded” stand apart in the source; their conditions may differ. Where no end group is shown, it is not given here.
Experiments:
[1] = system: scleroderma lung fibroblasts (SLF); experiment: Kinase (signaling) inhibitor treatment of SLF, Western blotting; type: cell-based, human; parameters: key to Collagen / Tenascin-C / ASMA / Ph-ERK / Ph-JNK / Ph-Akt: a decrease ↓; an increase ↑; no effect —; conditions: for JNK activation / ASMA expression / Akt activation / ERK activation / collagen expression / tenascin-C expression: 10 μM inhibitor, result in words; for ASMA / Ph-Akt / Ph-ERK / Ph-JNK / Collagen / Tenascin-C: inhibitor 10 μM, serum-free medium, Western blotting; for ASMA / Ph-Akt / Ph-ERK / Ph-JNK: cell layer; for Collagen / Tenascin-C: culture medium
Text: (§1) Fibroblasts were derived from lung tissue obtained at autopsy from scleroderma patients (SLF) and from age-, race-, and sex-matched normal subjects (NLF) and cultured as previously described (44). Cells were used in passages 2-4. The group of scleroderma patients fulfilled the criteria of American college of Rheumatology for the diagnosis of scleroderma with lung involvement. Normal human lung tissue was obtained from the Brain and Tissue Bank for Developmental Disorders (Baltimore, Md.) or from the National Disease Research Interchange (Philadelphia, Pa.). Scleroderma lung tissue was obtained from the Division of Pathology and Laboratory Medicine at the Medical University of South Carolina (MUSC). The study was approved by the Institutional Review Board for Human Subject Research at the MUSC.
(§2) U0126 (MEK inhibitor), SP600125 (JNK inhibitor), LY294002 (PI3 kinase inhibitor) and Akt inhibitor VIII were purchased from Calbiochem and dissolved in DMSO (mM). Cells in 6-well plates were treated with 10 μM of inhibitors in serum-free medium for 6 h (U0126) or 24 h for the other inhibitors prior to the harvesting of cells and medium.
(§3) Cell layers were harvested in boiling SDS-PAGE sample buffer; medium was dialyzed, lyophilized, and resuspended in sample buffer. Aliquots of culture medium or of cell layer representing material derived from the same number of cells was probed using the following primary antibodies and appropriate secondary antibodies. Culture medium: goat anti-human collagen I (AB758P) and rabbit anti-human tenascin-C (AB19011) from Chemicon International (Temecula, Calif.). Cell layer: rabbit antibodies against PKCα (sc-208), PKCε (sc-214), activated JNK (sc-12882), activated Akt Thr 308 (sc-166646R) and caveolin-1 (sc-894) from Santa Cruz Biotechnology (Santa Cruz, Calif.); rabbit antibodies against ERK 1/2 (9102), activated ERK 1/2 (9106), JNK (9252), Akt (9272), MEK 1/2 (9122), and activated MEK 1/2 (9121) from Cell Signaling (Beverly, Mass.); mouse monoclonal anti-ASMA (clone 1A4) from Sigma (Saint Louis, Mo.), and mouse monoclonal anti-actin (MAB1501) from Chemicon International (Temecula, Calif.).
(§4) Immunoreactive bands were quantified by densitometry using the Image 1.32J NIH software. For statistical analysis the raw densitometric data were processed and analyzed using the Prism 3.0 (GraphPad Software Inc.) statistical analysis software.

[2] = system: normal lung fibroblasts (NLF); experiment: Kinase (signaling) inhibitor treatment of NLF, Western blotting; type: cell-based, human; parameters: key to Collagen / Tenascin-C / ASMA / Ph-ERK / Ph-JNK / Ph-Akt: a decrease ↓; an increase ↑; no effect —; conditions: for ASMA expression / JNK activation / Akt activation / ERK activation / collagen expression / tenascin-C expression: 10 μM inhibitor, result in words; for ASMA / Ph-Akt / Ph-ERK / Ph-JNK / Collagen / Tenascin-C: inhibitor 10 μM, serum-free medium, Western blotting; for ASMA / Ph-Akt / Ph-ERK / Ph-JNK: cell layer; for Collagen / Tenascin-C: culture medium
Text: as §1, §2, §3, §4

[3] = system: scleroderma lung fibroblasts (SLF); experiment: Collagen and ASMA expression in SLF treated with CSD and its subdomains; type: cell-based, human; conditions: for inhibition of collagen expression / inhibition of ASMA expression: 5 μM peptide; for ASMA expression: peptides at 1, 3, and 5 μM
Procedure: (§5) The indicated cell types (NLF and SLF) were cultured as described with 0, 1, 3, or 5 μM of the indicated peptides. Collagen in the medium and ASMA and actin (loading control) in the cell layer were detected by Western blotting. Blots were quantified densitometrically. The level of collagen and ASMA in cells treated with no peptide (divided by the level of actin) was set to 100 arbitrary units. Because SLF express higher levels of collagen and ASMA than do NLF, 100 arbitrary of collagen in SLF is equivalent to 195 arbitrary units of collagen in NLF and 100 arbitrary units of ASMA in SLF is equivalent to 255 arbitrary units of ASMA in NLF. The data presented are the average of the densitometric quantification of three independent experiments.
(§6) To compare the activity of CSD to its subdomains, five subdomains [A (82-88 amino acids), B (89-95), C (96-101), AB (82-95) and BC (89-101)] were synthesized in fusion with the Antennapedia internalization sequence and added to culture medium at 1, 3, and 5 μM. […] Very different results were obtained when examining ASMA expression.

[4] = system: eNOS; conditions: endothelial cells; Bernatchez et al. (4); cited from earlier work
[5] = system: normal lung fibroblasts (NLF); experiment: Collagen and ASMA expression in NLF treated with CSD and its subdomains; type: cell-based, human; conditions: for ASMA expression: peptides at 1, 3, and 5 μM
Procedure: as §5, §6

[6] = any concentration tested (1, 3, and 5 μM)

Molecule	JNK activation [1]	ASMA [1]	Ph-Akt [1]	Ph-ERK [1]	Ph-JNK [1]	Collagen [1]	Tenascin-C [1]	ASMA expression [2]	JNK activation [2]	ASMA [2]	Ph-Akt [2]	Ph-ERK [2]	Ph-JNK [2]	Collagen [2]	Tenascin-C [2]	ASMA expression [3]	eNOS activity [4]	ASMA expression [5]	other results
O=c1cc(N2CCOCC2)oc2c(-c3ccccc3)cccc12 [LY294002]	no effect	↓	↓	↑	—	↓	↓	no effect	no effect	—	↓	↑	—	↓	↓				
AB: CSD subdomain AB (82-95) synthesized in fusion with the Antennapedia internalization sequence (DGIWKASFTTFTVT; also: fused to Antennapedia internalization sequence; UniProt Q03135 82-95, looked up, fragment)																did not inhibit	also inhibited	did not inhibit	inhibition of collagen expression [3]: approximately 50%; inhibition of collagen expression ([5]; 5 μM peptide): approximately 50%
C: CSD subdomain C (96-101) synthesized in fusion with the Antennapedia internalization sequence (KYWFYR; also: fused to Antennapedia internalization sequence; UniProt Q03135 96-101, looked up, fragment)																inhibited			inhibition of ASMA expression [3]: approximately 50%; inhibition of collagen expression [3]: approximately 50%; inhibition of collagen expression ([5]; 5 μM peptide): approximately 50%
N#CC(=C(/N)Sc1ccccc1N)/C(C#N)=C(\N)Sc1ccccc1N [Peptide U0126, U0126]	little or no effect	—	—	↓	—	↓	↓	unaffected; also recorded: little or no effect	little or no effect	—	—	↓	—	↓	↓				ASMA expression [1]: unaffected; also recorded: little or no effect; Akt activation [1]: little or no effect; ERK activation [1]: blocked; collagen expression [1]: blocked; tenascin-C expression [1]: inhibited; also recorded: blocked; Akt activation [2]: little or no effect; ERK activation [2]: blocked; collagen expression [2]: blocked; tenascin-C expression [2]: inhibited; also recorded: blocked
BC: CSD subdomain BC (89-101) synthesized in fusion with the Antennapedia internalization sequence (FTTFTVTKYWFYR; also: fused to Antennapedia internalization sequence; UniProt Q03135 89-101, looked up, fragment)																inhibited	also inhibited	inhibited	collagen expression ([3]; 3 μM peptide): completely inhibited; inhibition of ASMA expression [3]: about 80%; collagen expression ([5]; 3 μM peptide): completely inhibited; inhibition of ASMA expression ([5]; 5 μM peptide): about 80%
Oc1c2ccccc2c2c3c(cccc13)N=N2 [SP600125]		↓	↓	↓	↓	↓	↓	no effect		—	↓	↓	↓	↓	↓				
A: CSD subdomain A (82-88 amino acids) synthesized in fusion with the Antennapedia internalization sequence (DGIWKAS; also: fused to Antennapedia internalization sequence; UniProt Q03135 82-88, looked up, fragment)																did not inhibit		did not inhibit	collagen expression [3, 6]: did not inhibit; collagen expression [5, 6]: did not inhibit
B: CSD subdomain B (89-95) synthesized in fusion with the Antennapedia internalization sequence (FTTFTVT; also: fused to Antennapedia internalization sequence; UniProt Q03135 89-95, looked up, fragment)																did not inhibit	most strongly inhibited	did not inhibit	collagen expression [3, 6]: did not inhibit; collagen expression [5, 6]: did not inhibit
O=c1[nH]c2ccccc2n1C1CCN(Cc2ccc(-c3nc4cc5[nH]cnc5cc4nc3-c3ccccc3)cc2)CC1 [Akt inhibitor VIII]	enhanced	↓	↓	↑	↑	—	—	no effect	no effect	—	↓	↑	—	↓	↓				ASMA expression [1]: inhibited; Akt activation [1]: inhibited; ERK activation [1]: enhanced; collagen expression [1]: no effect; tenascin-C expression [1]: no effect; Akt activation [2]: inhibited; ERK activation [2]: enhanced; collagen expression [2]: inhibited; tenascin-C expression [2]: inhibited

— patent publication US8058227B2, “Method of treating fibrosis in a subject in need thereof comprising administering a composition comprising a CSD” (Medical University of South Carolina, priority 2006, dated 2011)
